{"source": "patent EP0438856A2", "about": "“Use of melatonin to protect the skin against the influence of UV-rays” (SHISEIDO COMPANY LIMITED, priority 1989, dated 1991)", "key": {"[1]": {"system": "tumors", "settings": "cited from earlier work"}, "[2]": {"system": "hairless mice", "assay_type": "in vivo, albino hairless mice", "procedure": "Male albino hairless mice 8 weeks old (strain derived from Skh-HR-1, weight 25 - 35 g) were used, and one group consisted of 12 to 14 mice.\nMelatonin (SIGMA Co.) was used as a suspension in 20% ethanol containing physiological saline, and administered by an intraperitoneal injection of 0.1 ml in doses at 3 levels of 0 mg, 1 mg, and 10 mg per day.\nA Toshiba FL20-SE was mounted in a cage for irradiation, and irradiation was carried out at an irradiation intensity of 0.94 mW/cm², for 8 minutes per day, three times per week on alternate days for weeks. The irradiation was carried out 57 times, and the total irradiation dose was 25.7 J/cm². The administration of the sample was commenced simultaneously with the UV rays irradiation, and after the completion of the UV rays irradiation, the sample was administered continuously for an additional 10 weeks.\nThe size of the tumor generated was measured with slide calipers.\nA t-examination was practiced for the number of tumors with sizes of 5 mm or more per one individual, and the number of tumors generated with sizes of 5 mm or more is shown in Fig. 2."}, "[3]": {"system": "Fibroblasts derived from a human being", "test": "Effect on cell damage caused by UV-rays irradiation (colony formation)", "assay_type": "cell-based", "settings": "100 mM melatonin in phosphate buffer, vs system without melatonin, p < 0.01, Fig. 1", "procedure": "Fibroblasts derived from a human being were seeded in a laboratory dish having a diameter of 6 cm, at 400 cells/laboratory dish, and were cultured in Eagle's MEM medium containing 10% fetal calf serum in an incubator at 5% CO₂ , at 37°C for 24 hours. After the medium was exchanged with a phosphate buffer containing 100 mM of melatonin (SIGMA Co.), it was irradiated by UVB (Toshiba FL-SE 20W) at 50 mJ/cm² or 100 mJ/cm², followed by a further culturing for 6 days. The culture was fixed with a 10% neutral formalin, stained with a 30-fold Gimza solution, and the colonies per laboratory dish were counted. The colonies of the irradiated group were divided by the colonies of the non-irradiated group, to measure the colony formation ratio. As a Control, a phosphate buffer containing no melatonin was added. In Fig. 1, (a) is the system containing no melatonin and (b) is the system containing 100 mM of melatonin. […] The risk ratio p becomes statistically significant at p < 0.05. Accordingly, it can be seen that melatonin has a protective effect against cell damage caused by UV-rays irradiation."}}}
{"smiles": "COc1ccc2[nH]cc(CCNC(C)=O)c2c1", "note": "[melatonin, N-acetyl-5-methoxytryptamine]", "values": [{"measurement": "proliferation of tumors", "setting": "[1]; experimental leukemia, sarcoma, mammary tumors (literature reports)", "value": "suppressing of a proliferation of tumors"}, {"measurement": "course of tumors", "setting": "[1]; mammary tumors (Hamilton, 1969) or lung cancer (Lapin and Ebels, 1976)", "value": "tumors were worsened"}, {"measurement": "protective effect against skin cancer", "setting": "[2]; group administered with 10 mg of melatonin per day, intraperitoneal", "value": "a protective effect against skin cancer was seen"}, {"measurement": "generation and proliferation of tumors (number of tumors generated with sizes of 5 mm or more per one mouse)", "setting": "[2]; melatonin administered group (1 mg or 10 mg per day, intraperitoneal), UV irradiated, p < 0.05 on 23 days and 26 days and thereafter, Fig. 2", "value": "significantly suppressed"}, {"measurement": "colony formation ratio", "setting": "[3]; UVB 50 mJ/cm²", "value": "significantly higher colony formation ratio"}, {"measurement": "colony formation ratio", "setting": "[3]; UVB 100 mJ/cm²", "value": "significantly higher colony formation ratio"}]}
